Assay results as given in US9687494B2, “Iminothiadiazine dioxide compounds as BACE inhibitors, compositions, and their use” (Merck Sharp & Dohme Corp., priority 2009, dated 2017).

Tests used:
[1] = Solution stability, Example A (pH 7.4 phosphate buffer/MeOH, LC/MS); format: physicochemical
Protocol: The following comparative procedures were used.
A 1.05 mg/mL stock solution (5 mL) of Ex. 45 in MeOH was prepared. From the stock solution was taken out 1.25 mL and diluted to 25 mL with the addition of 23.75 mL of 10 mM phosphate buffer (pH 7.4)/MeOH (70/30 v/v). This new solution was split into three. One solution was incubated at 4° C., another incubated at 25° C. and the third incubated at 40° C. Each solution was analyzed by LC/MS after day 1, day 2 and day 6 and compared to a standard calibration curve for Ex. 45.
In the following study, the solution stability of the compound of Example 45 was measured and compared to that of Compound Z. The compound of Example 45 is an iminothiadiazine dioxide compound of the invention. Compound Z is the corresponding iminopyrimidinone compound. The structures of the compound of Example 45 and of Compound Z are shown below. Studies were performed in aqueous pH 7.4 buffer containing methanol at 4° C., 25° C. and 40° C.

[2] = Solution stability, Example B (50 mM pH 7.4 phosphate buffer, 25° C., LC/MS); format: physicochemical
Protocol: Stock solutions of the tested compounds were prepared by dissolving about 3 mg of each compound in 3 mL of acetonitrile. Standards for test compounds were prepared by diluting 1 mL of the stock solution with an additional 4 mL of acetonitrile. These standards were stored at 4° C. Samples were prepared by diluting 1 mL of the stock solution with 4 mL of 50 mM pH 7.4 phosphate buffer. These samples were stored at 25° C. in the absence of light. Standards and samples were analyzed by LC/MS initially and at day 1, day 4, and day 6.
Mobile phase A: 10 mM pH 5 ammonium acetate buffer:methanol (90:10)
Mobile phase B: 10 mM pH 5 ammonium acetate buffer:methanol (10:90)
Column: Zorbax SB-Phenyl 4.6×50 mm, 1.8 μm
Column temperature: 40° C.
Detectors: UV at 220 nm and 236 nm
MS, ES ionization, positive mode, for identification only at final time point.
The terms reported in the tables below have the following meanings:
Area % is the integration of peak from HPLC as reported by Waters Empower II software.
RRT is the relative retention time of new product compared to the standard of the test compound.
ND stands for no peak detected by the UV detector.
* stands for no ion detected by the mass spectrometer.
In the following study, the solution stability of the compound of Example 47 was measured and compared to that of Compound Y. The compound of Example 47 is an iminothiadiazine dioxide compound of the invention. Compound Y is the corresponding iminopyrimidinone compound. The structures of the compound of Example 47 and of Compound Y are shown below. Studies were performed in pH 7.4 buffer at 25° C.

[3] = Standard (acetonitrile, stored at 4° C.)

Compound: CN1C(=N)N[C@](C)(c2cc(-c3cccc(C#N)c3)cs2)CC1=O [Compound Z]
- Assay (Area %), class symbol ([1]; pH 7.4, 4° C., 2 days): — ((—) stands for >20% degradation)
- Assay (Area %), class symbol ([1]; pH 7.4, 4° C., 6 days): — ((—) stands for >20% degradation)
- Assay (Area %), class symbol ([1]; pH 7.4, 4° C., time not given): — ((—) stands for >20% degradation)
- Assay (Area %), class symbol ([1]; pH 7.4, 25° C., 2 days): — ((—) stands for >20% degradation)
- Assay (Area %), class symbol ([1]; pH 7.4, 25° C., 6 days): — ((—) stands for >20% degradation)
- Assay (Area %), class symbol ([1]; pH 7.4, 25° C., time not given): — ((—) stands for >20% degradation)
- Assay (Area %), class symbol ([1]; pH 7.4, 40° C., 2 days): — ((—) stands for >20% degradation)
- Assay (Area %), class symbol ([1]; pH 7.4, 40° C., 6 days): — ((—) stands for >20% degradation)
- Assay (Area %), class symbol ([1]; pH 7.4, 40° C., time not given): — ((—) stands for >20% degradation)

Compound: CN1C(=N)N[C@](C)(c2cc(-c3cccc(C#N)c3)cs2)CS1(=O)=O [Example 45]
- Assay (Area %), class symbol ([1]; pH 7.4, 40° C., time not given): — ((—) stands for >20% degradation)

Compound: CC#Cc1cncc(-c2csc([C@]3(C)CS(=O)(=O)N(C)C(=N)N3)c2)c1 [Example 47]
- Area %, Day 1; compound peak (RRT 1.00) ([2]; Sample at pH 7.4, 25° C.): 98.56 Area %
- Area %, Day 4; compound peak (RRT 1.00) ([2]; Sample at pH 7.4, 25° C.): 98.53 Area %
- Area %, Day 6; compound peak (RRT 1.00) ([2]; Sample at pH 7.4, 25° C.): 98.53 Area %
- Area %, Initial; compound peak (RRT 1.00) ([2]; Sample at pH 7.4, 25° C.): 98.55 Area %
- Area %, Day 1; compound peak (RRT 1.00) [2, 3]: 98.55 Area %
- Area %, Day 4; compound peak (RRT 1.00) [2, 3]: 98.52 Area %
- Area %, Day 6; compound peak (RRT 1.00) [2, 3]: 98.52 Area %
- Area %, Initial; compound peak (RRT 1.00) [2, 3]: 98.53 Area %
